Data: paper PMC11775380, “Discovery of Novel Nav1.7-Selective Inhibitors with the 1H-Indole-3-Propionamide Scaffold for Effective Pain Relief” (Research, 2025)

Legend:
[1] = tested on: acetic acid writhing pain model in mice; assay: Acetic acid-induced writhing test; assay type: in vivo, ICR mice; settings: 15 min before acetic acid, writhing counted 30 min
From the text: Acute pain was a common type of pain with considerable value for drug development. Here, 2 acute inflammatory pain models were used to verify the acute analgesic effect of WN2-R. One such model, the acetic acid writhing pain model in mice, is a well-established acute visceral pain model. It simulates clinically relevant intestinal discomfort by stimulating the abdominal mucosa and intestine with acetic acid and has been extensively used to screen analgesic or anti-inflammatory drugs. Based on this model, we evaluated the acute analgesic effect of WN2-R using 2 drug delivery methods, i.g. and […] (n = 6). […] Furthermore, the analgesic effect of WN2-R at the same dose was similar to that of the positive control drug PF-05089771, with no significant difference between these two. […] Three male and 3 female ICR mice were used in the acetic acid-induced writhing test. Mice were preadministered with either WN2-R (5 mg/kg i.g., 1 mg/kg i.m.), PF05089771 (5 mg/kg i.g., 1 mg/kg i.m.), or saline 15 min before i.p. injection of 0.2 ml of acetic acid (0.8%, V/V). Each mouse was then placed in an individual open polyvinyl cage (30 cm × 40 cm × 30 cm). The number of writhing responses, characterized by a wave of abdominal muscle contraction followed by hind limb extension, was recorded for 30 min after acetic acid injection. These responses served as an indication of nociceptive intensity. The percentage of inhibition was calculated using the following equation: Inhibition% = (Writhing Numbervehicle – Writhing Numberdrug)/Writhing Numbervehicle × 100% [15, 47].

[2] = tested on: formalin-induced acute inflammatory pain model in mice; assay: Formalin-induced inflammation pain model; assay type: in vivo, ICR mice; settings: 30 min before formalin
Protocol: The formalin-induced acute inflammatory pain model in mice, achieved through the plantar injection of formalin aqueous solution, is another widely used model for acute inflammatory pain. This model comprises 2 stages: an initial phase ([…]) where pain is triggered by formalin's direct stimulation of nociceptive receptors on sensory neurons, followed by a second phase (15 to 40 min) characterized by persistent inflammatory pain due to tissue damage. Similarly, both i.g. and i.m. methods were used to evaluate the effect of WN2-R in this model (n = 6) (Fig. 6B and I). […] These findings were consistent across repeated experiments.
To induce the pain response, 20 μl of formalin (5%, w/v) was injected subcutaneously into the right hind paw of ICR mice (3 male and 3 female). Prior to the formalin injection, mice were preadministered with WN2-R (5 mg/kg i.g., 1 mg/kg i.m.), PF05089771 (5 mg/kg i.g., 1 mg/kg i.m.), or saline 30 min beforehand. The duration of licking/biting the injected paw was recorded every 5 min, commencing immediately after the formalin injection and continuing for 40 min. Phase I and II in this assay corresponded to the nociceptive response observed between 0 and 5 min and between 10 and 40 min, respectively.

[3] = tested on: CFA inflammatory pain model of mice; assay: CFA-induced inflammatory (chronic) pain model; assay type: in vivo, ICR mice; settings: for Paw withdrawal threshold (PWT) at 1.5 h: 1.5 h post drug, 24 h after CFA
Protocol: The chronic pain model of mice was often used to simulate persistent pain in humans. In this model, chronic persistent pain was induced by injecting complete Freund’s adjuvant (CFA) into the right hind foot of mice. […] The chronic analgesic potential of WN2-R was evaluated using both i.g. and i.m. methods (n = 4). When administered by i.g., the PWTs of the WN2-R group and the PF-05089771 group reached their peak at 1.5 and 1 h after administration, respectively, and subsequently declined to the same level as the saline group at 2.5 h (Fig. 6D). […] When administered i.m., both the WN2-R and PF-05089771 groups reached peak PWTs at 1.5 h, and declined to the saline group level at 3 h (Fig. 6K). […] The mechanical allodynia of ICR mice (2 male and 2 female) was assessed prior to model construction using von Frey fibers according to the up–down method. Mice with paw withdraw thresholds (PWTs) remarkably deviating from the mean value were excluded from further experiments. Subsequently, 15 μl of CFA was unilaterally injected into the intraplantar surface of the right hind paw of each mice. After 24 h, the PWTs of the mice were assessed. During the i.g. administration of drugs or saline, PWTs were measured 0, 0.5, 1, 1.5, 2, and 2.5 h post drugs/saline administration. Similarly, during i.m. administration, PWTs were measured at 0, 0.5, 1, 1.5, 2, 2.5, and 3 h post drugs/saline administration.

[4] = tested on: SNI neuropathic pain model in mice; assay: Spared nerve injury (SNI) neuropathic pain model; assay type: in vivo, C57 mice
From the text: Peripheral nerve injury models were developed to investigate the mechanisms of neuropathic pain. One such model, the spared nerve injury (SNI) neuropathic pain model in mice, involved ligating and transecting the […] and tibial nerves within the […] nerve, while leaving the sural nerve untouched. […] To evaluate the neuroanalgesic potential of WN2-R in this model, both i.g. and i.m. routes were used to evaluate the neuroanalgesic effect of WN2-R in this model (n = 5). […] In contrast, PF-05089771 reached its peak at 1 h (PWTs = 1.08 g) but then rapidly lost its efficacy, resembling the saline control group after 1 h. Throughout the experiment, the PWTs of the WN2-R group remained consistently higher than that of the PF-05089771 group (Fig. 6F and G). […] Subsequently, the efficacy of both drugs gradually declined, converging with the saline group after 3 h. Throughout the entire dosing period, the PWTs of the WN2-R group were slightly higher than that of the PF-05089771 group (Fig. 6M and N). […] To elucidate the time course of pain hypersensitivity induced by SNI, the behavioral responses (mechanical testing with von Frey fibers) were measured before surgery (baseline value) in C57 mice (5 female). Then, the mice underwent SNI surgery, which involved ligation and axotomy of the common peroneal and tibial nerves, while sparing the sural nerve. Sham-operated mice served as controls, with their nerves remaining intact. To confirm the presence of pain hypersensitivity in the SNI group, behavioral testing was carried out 14 days after SNI in each animal. Post drugs/saline administration, PWTs were measured at 0, 0.5, 1, 1.5, 2, 2.5, and 3 h for the i.g. route, and at 0, 0.5, 1, 2, 3, and 4 h for the i.m. route.

[5] = design: method as in PMID 28682065; settings: positive control drug; cited from earlier work

Nc1[nH]ncc1-c1cc(Cl)ccc1Oc1cc(F)c(S(=O)(=O)Nc2cscn2)cc1Cl [PF-05089771, 4-[2-(5-amino-1H-pyrazol-4-yl)-4-chlorophenoxy]-5-chloro-2-fluoro-N-1,3-thiazol-4-ylbenzenesulfonamide, reference compound]
Analgesic rate (normalized number of writhing) ([1]; i.g., 5 mg/kg): 53.5% | Analgesic rate (normalized number of writhing) ([1]; i.p. (method: 1 mg/kg i.m.)): 51.9% | Licking time in phase I vs saline ([2]; i.g., 5 mg/kg): significantly reduced licking time | Licking time in phase II vs saline ([2]; i.g., 5 mg/kg): decreased effectiveness | Licking time in phase I vs saline ([2]; i.m., 1 mg/kg): significantly reduced licking time | Licking time in phase II vs saline ([2]; i.m., 1 mg/kg): significantly reduced licking time | Time at which PWT declined to the saline group level ([3]; i.g.): 2.5 h | Time of peak PWT after administration ([3]; i.g.): 1 h | Paw withdrawal threshold (PWT) at 1.5 h ([3]; i.g.): 1.32 g | Time at which PWT declined to the saline group level ([3]; i.m.): 3 h | Time of peak PWT after administration ([3]; i.m.): 1.5 h | Paw withdrawal threshold (PWT) at 1.5 h ([3]; i.m.): 1.83 g | Time of peak efficacy ([4]; i.g.): 1 h | Paw withdrawal threshold (PWTs) ([4]; i.g., 1 h post drug application, 14 days after SNI): 1.08 g | Time after which efficacy converged with the saline group ([4]; i.m.): 3 h | Time of peak efficacy ([4]; i.m.): 1 h | Paw withdrawal threshold (PWTs) at peak efficacy ([4]; i.m., 1 h post drug application, 14 days after SNI): 1.30 g | F (bioavailability) [5]: 27%
